Laboratory results: BindingDB's records for doi:10.1021/acs.jmedchem.5b01331 (2016)

Experiment: Antagonist activity at recombinant human GPR55 expressed in HEK293 cells assessed as inhibition of LPI mediated receptor activation by measuring LPI EC50 after 5 mins by xCELLigence assay (Rvb = 1.6 to 4.1 nM)

SMILES | EC50
COc1ccc2c(c1)OC(C)(C)c1cnn(CCN3CCN(C(=O)c4cccs4)CC3)c1-2 | 29 nM
COc1ccc2c(c1)OC(C)(C)c1cn(CCN3CCN(C(=O)C4CCCO4)CC3)nc1-2 (centres undefined) | 25 nM
COc1ccc2c(c1)OC(C)(C)c1cnn(CCN3CCN(C(=O)c4ccco4)CC3)c1-2 | 20 nM
COc1ccc2c(c1)OC(C)(C)c1cn(CNC(=O)CN3CCN(c4ccccc4OC)CC3)nc1-2 | 28 nM
COc1ccc2c(c1)OC(C)(C)c1cn(CNC(=O)CN3CCN(c4ccccc4)CC3)nc1-2 | 32 nM
COc1ccc(N2CCN(CC(=O)NCn3ncc4c3-c3ccc(OC)cc3OC4(C)C)CC2)cc1 | 27 nM
COc1ccc2c(c1)OC(C)(C)c1cn(CCN3CCN(C(=O)c4ccccc4)CC3)nc1-2 | 16 nM
COc1ccc2c(c1)OC(C)(C)c1cnn(CNC(=O)CN3CCN(c4ccccc4)CC3)c1-2 | 28 nM
COc1ccc2c(c1)OC(C)(C)c1cn(CNC(=O)CN3CCN(c4cccc(C)c4C)CC3)nc1-2 | 30 nM
